# Laboratory results as given in patent US20220135591A1, “HETEROCYCLIC COMPOUNDS AS INHIBITORS OF MONOACYLGLYCEROL LIPASE (MAGL)” (Hoffmann-La Roche Inc., priority 2019, published 2022).
# pIC50: −log10 of the molar value.
# Target: T1, MAGL (Homo sapiens, UniProt Q99685)
# T1 sequence (Q99685 1-303): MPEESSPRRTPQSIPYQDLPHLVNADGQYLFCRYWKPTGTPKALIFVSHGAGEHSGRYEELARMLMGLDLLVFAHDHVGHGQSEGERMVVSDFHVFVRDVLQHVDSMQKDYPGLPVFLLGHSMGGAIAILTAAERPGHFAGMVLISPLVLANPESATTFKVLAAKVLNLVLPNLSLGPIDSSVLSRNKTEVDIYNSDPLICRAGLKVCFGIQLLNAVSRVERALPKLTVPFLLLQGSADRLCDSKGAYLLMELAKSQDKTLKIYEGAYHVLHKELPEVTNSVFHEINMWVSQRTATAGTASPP
# Test: 2-AG assay: MAGL inhibitory activity by hydrolysis of 2-arachidonoylglycerol to arachidonic acid, mass spectrometry
# Assay type: biochemical
# Conditions: 2-AG assay (values marked [b])
# Method: Alternatively, compounds were profiled for MAGL inhibitory activity by determining the enzymatic activity by following the hydrolysis of the natural substrate 2-arachidonoylglycerol (2-AG) resulting in arachidonic acid, which can be followed by mass spectrometry. This assay is hereinafter abbreviated “2-AG assay”.
# The 2-AG assay was carried out in 384 well assay plates (PP, Greiner Cat #784201) in a total volume of 20 μL. Compound dilutions were made in 100% DMSO (VWR Chemicals 23500.297) in a polypropylene plate in 3-fold dilution steps to give a final concentration range in the assay from 12.5 μM to […]. 0.25 μL compound dilutions (100% DMSO) were added to 9 μL MAGL in assay buffer (50 mM TRIS (GIBCO, 15567-027), 1 mM EDTA (Fluka, 03690-100 mL), 0.01% (v/v) Tween. After shaking, the plate was incubated for 15 min at RT. To start the reaction, 10 μL 2-arachidonoylglycerol in assay buffer was added. The final concentrations in the assay was […] and 8 μM 2-arachidonoylglyerol. After shaking and 30 min incubation at RT, the reaction was quenched by the addition of 40 μL of ACN containing 4 μM of d8-arachidonic acid. The amount of arachidonic acid was traced by an online SPE system (Agilent Rapidfire) coupled to a triple quadrupole mass spectrometer (Agilent 6460). A C18 SPE cartridge (G9205A) was used in an ACN/water liquid setup. The mass spectrometer was operated in negative electrospray mode following the mass transitions 303.1→259.1 for arachidonic acid and 311.1→267.0 for d8-arachidonic acid. The activity of the compounds was calculated based on the ratio of intensities [arachidonic acid/d8-arachidonic acid].
row,Compound,pIC50
1,"O=C(c1ccc(-c2cn(CC(F)(F)F)nn2)cc1)N1CCN(c2nc3nc(Cl)ccc3o2)CC1 [Example 98, (4-(5-chlorooxazolo[4,5-b]pyridin-2-yl)piperazin-1-yl)(4-(1-(2,2,2-trifluoroethyl)-1H-1,2,3-triazol-4-yl)phenyl)methanone]",6.84
2,"Cc1ccc2oc(N3CCN(C(=O)c4ccc(-c5cn(CC(F)(F)F)nn5)cc4)CC3)nc2n1 [Example 99, (4-(5-methyloxazolo[4,5-b]pyridin-2-yl)piperazin-1-yl)(4-(1-(2,2,2-trifluoroethyl)-1H-1,2,3-triazol-4-yl)phenyl)methanone]",6.28
3,"CC1(Cn2cc(-c3ccc(C(=O)N4CCN(c5nc6nc(Cl)ccc6o5)CC4)cc3)nn2)COC1 [Example 101, (4-(5-chlorooxazolo[4,5-b]pyridin-2-yl)piperazin-1-yl)(4-(1-((3-methyloxetan-3-yl)methyl)-1H-1,2,3-triazol-4-yl)phenyl)methanone]",6.22
4,"O=C(C#Cc1ccc(Cl)cc1)N1CCN(c2nc3nc(Cl)ccc3o2)CC1 [Example 103, 1-(4-(5-chlorooxazolo[4,5-b]pyridin-2-yl)piperazin-1-yl)-3-(4-chlorophenyl)prop-2-yn-1-one]",6.34
5,"C#Cc1ccc(C(=O)N2CCN(c3nc4nc(Cl)ccc4o3)CC2)cc1OC [Example 104, (4-(5-chlorooxazolo[4,5-b]pyridin-2-yl)piperazin-1-yl)(4-ethynyl-3-methoxyphenyl)methanone]",6.96
6,"O=C(c1ccc(-c2noc(C34CC(C3)C4)n2)cc1)N1CCN(c2nc3nc(Cl)ccc3o2)CC1 [Example 105, [4-[5-(3-bicyclo[1.1.1]pentanyl)-1,2,4-oxadiazol-3-yl]phenyl]-[4-(5-chlorooxazolo[4,5-b]pyridin-2-yl)piperazin-1-yl]methanone]",8.05
7,"CC(C)(C)n1cnc(-c2ccc(C(=O)N3CCN(c4nc5nc(Cl)ccc5o4)CC3)cc2F)n1 [Example 107, [4-(1-tert-butyl-1,2,4-triazol-3-yl)-3-fluorophenyl]-[4-(5-chloro-[1,3]oxazolo[4,5-b]pyridin-2-yl)piperazin-1-yl]methanone]",7.82
8,"Cc1ccc2oc(N3CCN(C(=O)c4ccc(-c5cn(C6(C(F)(F)F)CC6)nn5)cc4)CC3)nc2n1 [Example 108, [4-(5-methyl-[1,3]oxazolo[4,5-b]pyridin-2-yl)piperazin-1-yl]-[4-[1-[1-(trifluoromethyl)cyclopropyl]triazol-4-yl]phenyl]methanone]",6.81
9,"CC(C)(C)n1cnc(-c2ccc(C(=O)N3CCN(c4nc5nc(Cl)ccc5o4)CC3)cc2C(F)(F)F)n1 [Example 112, [4-(1-tert-butyl-1,2,4-triazol-3-yl)-3-(trifluoromethyl)phenyl]-[4-(5-chloro-[1,3]oxazolo[4,5-b]pyridin-2-yl)piperazin-1-yl]methanone]",7.92
10,"O=C(c1ccc(-c2cn(CC3COC3)nn2)cc1)N1CCN(c2nc3nc(Cl)ccc3o2)CC1 [Example 114, [4-(5-chloro-[1,3]oxazolo[4,5-b]pyridin-2-yl)piperazin-1-yl]-[4-[1-(oxetan-3-ylmethyl)triazol-4-yl]phenyl]methanone]",5.26
11,"Cc1ccc2oc(N3CCN(C(=O)c4ccc(-c5nnc(C(C)(C)C)o5)c(Cl)c4)CC3)nc2n1 [Example 117, (4-(5-(tert-butyl)-1,3,4-oxadiazol-2-yl)-3-chlorophenyl)(4-(5-methyloxazolo[4,5-b]pyridin-2-yl)piperazin-1-yl)methanone]",7.47
12,"Cn1nc(C(C)(C)C)nc1-c1ccc(C(=O)N2CCN(c3nc4nc(Cl)ccc4o3)CC2)cc1 [Example 119, [4-(5-tert-butyl-2-methyl-1,2,4-triazol-3-yl)phenyl]-[4-(5-chlorooxazolo[4,5-b]pyridin-2-yl)piperazin-1-yl]methanone]",6.85
13,"Cc1cc(C(=O)N2CCN(c3nc4nc(Cl)ccc4o3)CC2)cnc1-n1cc(C(C)(C)C)cn1 [Example 120, [6-(4-tert-butylpyrazol-1-yl)-5-methylpyridin-3-yl]-[4-(5-chloro-[1,3]oxazolo[4,5-b]pyridin-2-yl)piperazin-1-yl]methanone]",8.40
14,"Cc1ccc2oc(N3CCN(C(=O)c4ccc(-c5nnc(C(C)(C)C)o5)c(C(F)(F)F)c4)CC3)nc2n1 [Example 121, [4-(5-tert-butyl-1,3,4-oxadiazol-2-yl)-3-(trifluoromethyl)phenyl]-[4-(5-methyloxazolo[4,5-b]pyridin-2-yl)piperazin-1-yl]methanone]",7.89
15,"CC(C)(C)c1nnc(-c2ccc(C(=O)N3CCN(c4nc5nc(Cl)ccc5o4)CC3)cc2C(F)(F)F)o1 [Example 122, [4-(5-tert-butyl-1,3,4-oxadiazol-2-yl)-3-(trifluoromethyl)phenyl]-[4-(5-chlorooxazolo[4,5-b]pyridin-2-yl)piperazin-1-yl]methanone]",8.52
16,"COc1cc(C(=O)N2CCN(c3nc4nc(Cl)ccc4o3)CC2)ccc1-c1ncn(C(C)(C)C)n1 [Example 124, (4-(1-(tert-butyl)-1H-1,2,4-triazol-3-yl)-3-methoxyphenyl)(4-(5-chlorooxazolo[4,5-b]pyridin-2-yl)piperazin-1-yl)methanone]",7.09
17,"O=C(c1ccc(-c2cn(CC3(F)CC3)nn2)cc1)N1CCN(c2nc3nc(Cl)ccc3o2)CC1 [Example 125, (4-(5-chlorooxazolo[4,5-b]pyridin-2-yl)piperazin-1-yl)(4-(1-((1-fluorocyclopropyl)methyl)-1H-1,2,3-triazol-4-yl)phenyl)methanone]",6.92

# Next, values leading:
row,pIC50,Compound
1,5.97,"Cc1ccc2oc(N3CCN(C(=O)c4ccc(-c5cn(CC6(C)COC6)nn5)cc4)CC3)nc2n1 [Example 100, (4-(5-methyloxazolo[4,5-b]pyridin-2-yl)piperazin-1-yl)(4-(1-((3-methyloxetan-3-yl)methyl)-1H-1,2,3-triazol-4-yl)phenyl)methanone]"
2,6.03,"O=C(C#Cc1ccccc1)N1CCN(c2nc3nc(Cl)ccc3o2)CC1 [Example 102, 1-(4-(5-chlorooxazolo[4,5-b]pyridin-2-yl)piperazin-1-yl)-3-phenylprop-2-yn-1-one]"
3,7.44,"Cc1ccc2oc(N3CCN(C(=O)c4ccc(-c5ncn(C(C)(C)C)n5)c(F)c4)CC3)nc2n1 [Example 106, [4-(1-tert-butyl-1,2,4-triazol-3-yl)-3-fluorophenyl]-[4-(5-methyl-[1,3]oxazolo[4,5-b]pyridin-2-yl)piperazin-1-yl]methanone]"
4,5.60,"Cc1ccc2oc(N3CCN(C(=O)c4ccc(-c5cn(C6(C)COC6)nn5)cc4)CC3)nc2n1 [Example 109, [4-(5-methyl-[1,3]oxazolo[4,5-b]pyridin-2-yl)piperazin-1-yl]-[4-[1-(3-methyloxetan-3-yl)triazol-4-yl]phenyl]methanone]"
5,6.07,"CC1(n2cc(-c3ccc(C(=O)N4CCN(c5nc6nc(Cl)ccc6o5)CC4)cc3)nn2)COC1 [Example 110, [4-(5-chloro-[1,3]oxazolo[4,5-b]pyridin-2-yl)piperazin-1-yl]-[4-[1-(3-methyloxetan-3-yl)triazol-4-yl]phenyl]methanone]"
6,7.55,"Cc1ccc2oc(N3CCN(C(=O)c4ccc(-c5ncn(C(C)(C)C)n5)c(C(F)(F)F)c4)CC3)nc2n1 [Example 111, [4-(1-tert-butyl-1,2,4-triazol-3-yl)-3-(trifluoromethyl)phenyl]-[4-(5-methyl-[1,3]oxazolo[4,5-b]pyridin-2-yl)piperazin-1-yl]methanone]"
7,5.37,"Cc1ccc2oc(N3CCN(C(=O)c4ccc(-c5cn(CC6COC6)nn5)cc4)CC3)nc2n1 [Example 113, [4-(5-methyl-[1,3]oxazolo[4,5-b]pyridin-2-yl)piperazin-1-yl]-[4-[1-(oxetan-3-ylmethyl)triazol-4-yl]phenyl]methanone]"
8,8.10,"CC(C)(C)c1nnc(-c2ccc(C(=O)N3CCN(c4nc5nc(Cl)ccc5o4)CC3)cc2Cl)o1 [Example 115, (4-(5-(tert-butyl)-1,3,4-oxadiazol-2-yl)-3-chlorophenyl)(4-(5-chlorooxazolo[4,5-b]pyridin-2-yl)piperazin-1-yl)methanone]"
9,6.43,"Cc1ccc2oc(N3CCN(C(=O)c4cc(O)c(-c5nnc(C(C)(C)C)o5)c(F)c4)CC3)nc2n1 [Example 118, (4-(5-(tert-butyl)-1,3,4-oxadiazol-2-yl)-3-fluoro-5-hydroxyphenyl)(4-(5-methyloxazolo[4,5-b]pyridin-2-yl)piperazin-1-yl)methanone]"
10,6.76,"COc1cc(C(=O)N2CCN(c3nc4nc(C)ccc4o3)CC2)ccc1-c1ncn(C(C)(C)C)n1 [Example 123, (4-(1-(tert-butyl)-1H-1,2,4-triazol-3-yl)-3-methoxyphenyl)(4-(5-methyloxazolo[4,5-b]pyridin-2-yl)piperazin-1-yl)methanone]"
